Test results from patent US4804502A, “Vitamin D compounds” (priority 1988, dated 1989).
Like-named read-outs stand apart in the source and are kept apart here.

Tests used:
[1] = test system: vitamin D deficient rats; conditions: 3 weeks
[2] = biological target: T1, 1,25-(OH)2 D3 receptors (rat intestine) (Rattus norvegicus, UniProt P13053); assay: Competitive Binding to 1,25-(OH)2 D3 Intestine Receptors, rat; conditions: a/b×100 from amounts displacing 50% of 1,25-(OH)2[3H]D3
T1 construct: receptor prepared from intestine of chick, rat and calf; from tissue; host or cells: rat proximal small-intestine mucosa, cytosol, 35% ammonium sulphate precipitate
T1 sequence (P13053 1-423): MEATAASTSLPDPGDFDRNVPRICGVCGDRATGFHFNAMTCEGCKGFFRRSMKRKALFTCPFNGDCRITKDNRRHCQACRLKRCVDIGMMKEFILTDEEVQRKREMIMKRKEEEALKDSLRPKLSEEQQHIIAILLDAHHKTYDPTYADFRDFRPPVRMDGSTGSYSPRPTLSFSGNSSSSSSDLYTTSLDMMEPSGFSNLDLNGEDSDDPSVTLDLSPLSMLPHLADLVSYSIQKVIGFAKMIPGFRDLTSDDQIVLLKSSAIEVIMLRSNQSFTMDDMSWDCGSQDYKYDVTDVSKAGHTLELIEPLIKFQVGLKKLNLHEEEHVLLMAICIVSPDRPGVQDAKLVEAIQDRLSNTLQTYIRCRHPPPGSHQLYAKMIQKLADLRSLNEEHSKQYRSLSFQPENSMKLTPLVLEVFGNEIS
Procedure: (§1) The ability of vitamin D3 metabolites to compete for 1,25-(OH)[^3 H]D3 receptor binding sites was evaluated with receptor prepared from intestine of chick, rat and calf. The receptor was prepared by removing 10-12% of the small intestine immediately adjacent to the pyloric spincter which was washed immediately with cold buffer containing 500 mM KCl, 50 mM Tris, 1.5 mM EDTA, and 5 mM dithiothreitol, pH 7.4 (KTED buffer). Mucosa was collected and washed three times with 10 volumes of cold KTED buffer. The washed mucosa was homogenized in KTED buffer (20% w/v) using a Polytron Pt20 tissue disruptor. Cytosol was prepared by centrifugation of the homogenized mucosa at 300,000×g for 1 hour. Receptor was precipitated from the cytosol by the addition of ammonium sulphate to achieve 35% saturation. The ammonium sulphate treated cytosol was centrifuged at 20,000×g for 10 minutes. The supernatant was discarded and the pellet lyophilized and stored at […] Prior to binding assay the pellet was resuspended in cold binding assay buffer containing 150 mM KCl, 50 mM NaPO4, 1.5 mM EDTA and 5 mM dithiothreitol.

[3] = test system: bone calcium mobilization; assay: Bone Calcium Mobilization in Rat (plasma Ca increase); assay type: in vivo; conditions: intrajugular, 18 h
Procedure: Controls received carrier alone. Bone Ca resorption (BCR) was estimated by measuring the blood Ca increase in the treated rats. Blood was collected in heparinized tubes and centrifuged. The resulting plasma was measured for calcium concentration by atomic absorption spectroscopy. Since rats were fed a diet essentially devoid of Ca, plasma Ca increases reflected mobilization of Ca from bone, not intestinal Ca absorption.

[4] = biological target: T2, 1,25-(OH)2 D3 receptors (calf intestine) (Bos taurus, UniProt Q28037); assay: Competitive Binding to 1,25-(OH)2 D3 Intestine Receptors, calf; conditions: a/b×100 from amounts displacing 50% of 1,25-(OH)2[3H]D3
T2 construct: receptor prepared from intestine of chick, rat and calf; from tissue; host or cells: calf proximal small-intestine mucosa, cytosol, 35% ammonium sulphate precipitate
T2 sequence (Q28037 1-426): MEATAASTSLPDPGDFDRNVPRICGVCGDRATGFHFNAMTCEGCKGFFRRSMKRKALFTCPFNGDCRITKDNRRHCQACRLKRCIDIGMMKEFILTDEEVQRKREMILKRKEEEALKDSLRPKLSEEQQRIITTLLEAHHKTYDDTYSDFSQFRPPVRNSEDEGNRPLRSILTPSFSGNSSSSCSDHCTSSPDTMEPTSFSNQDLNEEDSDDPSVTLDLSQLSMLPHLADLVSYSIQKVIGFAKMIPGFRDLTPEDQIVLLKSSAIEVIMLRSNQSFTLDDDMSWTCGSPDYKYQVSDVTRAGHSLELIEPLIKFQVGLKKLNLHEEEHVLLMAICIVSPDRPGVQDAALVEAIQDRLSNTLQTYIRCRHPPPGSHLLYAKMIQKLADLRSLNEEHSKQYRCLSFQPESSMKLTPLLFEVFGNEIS
Procedure: as §1, with “The receptor was prepared by removing 10-12% of the small intestine immediately adjacent to the pyloric spincter which was washed immediately with cold buffer containing 500 mM KCl, 50 mM Tris, 1.5 mM EDTA, and 5 mM dithiothreitol, pH 7.4 (KTED buffer).” left out, “Receptor was precipitated from the cytosol by the addition of ammonium sulphate to achieve 35% saturation.” left out

[5] = test system: intestinal calcium absorption (duodenum); assay: Stimulation of Intestinal Calcium Absorption in Rat (intestinal 45Ca transport, everted gut sac); conditions: intrajugular, 18 h

Competitive Binding to 1,25-(OH)2 D3 Receptors - % of 1,25-(OH)2 D3 Effect, rat intestine [2] | Competitive Binding to 1,25-(OH)2 D3 Receptors - % of 1,25-(OH)2 D3 Effect, calf intestine [4] | SMILES | Bone Mass ([1]; daily dose 18 ng) | Serum Ca^2+ ([1]; daily dose 18 ng) | Serum PO4^2- ([1]; daily dose 18 ng) | Bone Mass ([1]; daily dose 72 ng) | Serum Ca^2+ ([1]; daily dose 72 ng) | Serum PO4^2- ([1]; daily dose 72 ng) | % of 1,25-(OH)2 D3 Effect in Rat, bone calcium mobilization ([3]; 12.5 ng/rat) | % of 1,25-(OH)2 D3 Effect in Rat, intestinal calcium absorption ([5]; 12.5 ng/rat) | % of 1,25-(OH)2 D3 Effect in Rat, bone calcium mobilization ([3]; 15.5 ng/rat) | % of 1,25-(OH)2 D3 Effect in Rat, intestinal calcium absorption ([5]; 15.5 ng/rat)
142% | 62% | C=C1/C(=C\C=C2/CCC[C@]3(C)[C@@H]([C@H](C)CC#CC(O)(C(F)(F)F)C(F)(F)F)CC[C@@H]23)C[C@@H](O)C[C@@H]1O [Compound B] | 385 ± 77 mm^3 /cm^3 | 15.63 ± 0.36 mg/dL | 7.66 ± 0.17 mg/dL | 746 + 48 mm^3 /cm^3 | 15.23 ± 0.22 mg/dL | 6.34 ± 0.26 mg/dL | 0% | 124% | – | –
39% | 47% | C=C1/C(=C\C=C2/CCC[C@]3(C)[C@@H]([C@H](C)CC#CC(C)(C)O)CC[C@@H]23)C[C@@H](O)C[C@@H]1O [Compound A, 1α,25-dihydroxy-23-yne-cholecalciferol] | – | – | – | – | – | – | – | – | 15% | 95%
